Laboratory results from US6552018B1, “Pyrazole derivatives” (Daiichi Pharmaceutical Co., Ltd., priority 1997, dated 2003).
Converted amounts (≈) assume the structure as drawn. Counter-ions that a name gives are not always drawn.

What was measured:
Tumor cells PC-12 = experiment: Tumor cell growth inhibition (MTT), PC-12; assay type: cell-based; details: PC-12 cells, culturing for 3 days with compound, absorbance at 540 nm; for GI50: Rattus norvegicus, PC-12, 72 h, read-out: GI50, concentration of the compound which showed 50% inhibition on cell growth as compared with a control group, PC-12
Method: (§1) Tumor cells PC-12 and PC-6, which had been serially cultured in RPMI 1640 containing 10% fetal bovine serum, 2 mM L-glutamine, and 100 μg/ml of kanamycin sulfate, were inoculated to a 96-well microplate (1.0×10^3 cells-PC-12/150 μl/well; 5.0×10^3 cells-PC-6/150 μl/well). After 24-hour incuvation, 50 μl of a preparation containing each of the compounds of Examples 5 to 8 and Example 13 (hereinafter described) in a varied concentration was added to each well, followed by culturing for 3 days. A 5 mg/ml solution of 3-(4,5-dimethylthiazol-2-yl)-2,5-diphenyl-2H-tetrazolium bromide (MTT) was added in an amount of 20 μl per well. Four hours later, the culture broth was removed, 150 μl/well of dimethyl sulfoxide was added to the residue, and the absorbance was measured at 540 nm.

Tumor cells PC-6 = experiment: Tumor cell growth inhibition (MTT), PC-6; assay type: cell-based; details: Homo sapiens, 72 h, PC-6 cells, culturing for 3 days with compound, absorbance at 540 nm, read-out: GI50, concentration of the compound which showed 50% inhibition on cell growth as compared with a control group, PC-6
Method: as §1

| Structure (SMILES) | GI50 (Tumor cells PC-12) [µg/mL] | GI50 (Tumor cells PC-6) [µg/mL] | further results |
| --- | --- | --- | --- |
| Cc1c(/C=C/CN2CCN3c4cc(F)ccc4OCC3C2)cnn1-c1cc(N(C)C)nc(N)n1 (racemic) [Example 71, (+/−)-3-[3-[1-(2-Amino-6-dimethylamino-4-pyrimidinyl)-5-methyl-4-pyrazolyl]-2-trans-propen-1-yl]-9-fluoro-2,3,4,4a,5,6-hexahydro-1H-pyrazino[2,1-c]-1,4-benzoxazine Hydrochloride] | 0.00537 |  |  |
| Cc1c(/C=C/CN2CCN3c4ccccc4CCC3C2)cnn1-c1cc(N(C)C)nc(N)n1 (single isomer, unassigned; isomer b) [Example 68, 3-[3-[1-(2-Amino-6-dimethylamino-4-pyrimidinyl)-5-methyl-4-pyrazolyl]-2-trans-propen-1-yl]-2,3,4,4a,5,6-hexahydro-1H-pyrazino[1,2-a]quinoline Hydrochloride (Isomer B)] |  |  | GI50, concentration of the compound which showed 50% inhibition on cell growth as compared with a control group, PC-12 (Tumor cells PC-12): 0.00916 µg/mL |
| Cc1c(/C=C/CN2CCN(c3cc(F)cc(F)c3)CC2)cnn1-c1nc(N)nc(N(C)C)n1.Cl [Example 60, 1-[1-(2-Amino-4-dimethylamino-1,3,5-triazin-6-yl)-5-methyl-4-pyrazolyl]-3-[4-(3,5-difluorophenyl)-1-piperazinyl]-1-trans-propene Hydrochloride] | 0.0207 |  |  |
| Cc1c(/C=C/CN2CCN3c4ccccc4CC3C2)cnn1-c1cc(N(C)C)nc(N)n1 (racemic) [Example 72, (+/−)-2-[3-[1-(2-Amino-6-dimethylamino-4-pyrimidinyl)-5-methyl-4-pyrazolyl]-2-trans-propen-1-yl]-1,2,3,4,10,10a-hexahydropyrazino[1,2-a]indole Hydrochloride] | 0.035 |  |  |
| Cc1c(/C=C/CN2CCN3c4cc(F)ccc4CCC3C2)cnn1-c1cc(N(C)C)nc(N)n1.Cl (single isomer, unassigned; isomer a) [Example 69, 3-[3-[1-(2-Amino-6-dimethylamino-4-pyrimidinyl)-5-methyl-4-pyrazolyl]-2-trans-propen-1-yl]-9-fluoro-2,3,4,4a,5,6-hexahydro-1H-pyrazin[1,2-a]quinoline Hydrochloride (Isomer A)] | 0.0246 |  |  |
| CNc1cc(-n2ncc(/C=C/CN3CCN(c4cc(F)cc(F)c4)CC3)c2C)nc(N)n1.Cl [Example 59, 1-[1-(2-Amino-6-methylamino-4-pyrimidinyl)-5-methyl-4-pyrazolyl]-3-[4-(3,5-difluorophenyl)-1-piperazinyl]-1-trans-propene Hydrochloride] | 0.011 |  |  |
| COc1cccnc1-n1ncc(/C=C/CN2CCN(c3cc(Cl)cc(Cl)c3)CC2)c1C.Cl [Example 13, 3-[4-(3,5-Dichlorophenyl)-1-piperazinyl]-1-[1-(3-methoxy-2-pyridyl)-5-methyl-4-pyrazolyl]-1-trans-propene Hydrochloride] | 0.0383 | 0.00493 |  |
| Cc1c(/C=C/CN2CCN(c3cccc(Cl)c3)CC2)cnn1-c1ncccc1Cl.Cl [Example 8, 3-[4-(3-Chlorophenyl)-1-piperazinyl]-1-[1-(3-chloro-2-pyridyl)-5-methyl-4-pyrazolyl]-1-propene Hydrochloride] | 0.21 | 0.0373 |  |
| Cc1c(/C=C/CN2CCN(c3cc(F)cc(F)c3)CC2)cnn1-c1cc(N)nc(N)n1.Cl [Example 58, 1-[1-(2,6-Diamino-4-pyrimidinyl)-5-methyl-4-pyrazolyl]-3-[4-(3,5-difluorophenyl)-1-piperazinyl]-1-trans-propene Hydrochloride] | 0.0134 |  |  |
| Cc1c(/C=C/CN2CCN(c3cc(F)cc(Cl)c3)CC2)cnn1-c1ncccc1Cl.Cl [Example 5, 3-[4-(3-Chloro-5-fluorophenyl)-1-piperazinyl]-1-[1-(3-chloro-2-pyridyl)-5-methyl-4-pyrazolyl]-1-trans-propene Hydrochloride] | 0.0913 | 0.0106 |  |
| Cc1c(/C=C/CN2CCN(c3cc(F)cc(F)c3)CC2)cnn1-c1ncccc1Cl.Cl [Example 6, 1-[1-(3-Chloro-2-pyridyl)-5-methyl-4-pyrazolyl]-3-[4-(3,5-difluorophenyl)-1-piperazinyl]-1-trans-propene Hydrochloride] | 0.0347 | 0.00879 |  |
| Cc1c(/C=C/CN2CCN3c4cc(F)ccc4CCC3C2)cnn1-c1cc(N(C)C)nc(N)n1 (single isomer, unassigned; isomer b) [Example 70, 3-[3-(1-(2-Amino-6-dimethylamino-4-pyrimidin-yl)-5-methyl-4-pyrazolyl)-2-trans-propen-1-yl]-9-fluoro-2,3,4,4a,5,6-hexahydro-1H-pyrazino[1,2-a]quinoline (Isomer B)] | 0.0101 (≈ 0.0218 µM) |  |  |
| Cc1c(/C=C/CN2CCN(c3cc(F)cc(F)c3)CC2)cnn1-c1ncccc1I (as salt: hydrochloride) |  |  | melting point: 212 to 216 °C (dec.) |
| Cc1c(/C=C/CN2CCN(c3cc(Cl)cc(Cl)c3)CC2)cnn1-c1ncccc1Cl.Cl [Example 7] | 0.237 | 0.0382 |  |
| Cc1c(/C=C/CN2CCN3c4ccccc4CCC3C2)cnn1-c1cc(N(C)C)nc(N)n1 (single isomer, unassigned; isomer a) [Example 67, 3-[3-[1-(2-Amino-6-dimethylamino-4-pyrimidinyl)-5-methyl-4-pyrazolyl]-2-trans-propen-1-yl]-2,3,4,4a,5,6-hexahydro-1H-pyrazino[1,2-a]quinoline Hydrochloride (Isomer A)] |  |  | GI50, concentration of the compound which showed 50% inhibition on cell growth as compared with a control group, PC-12 (Tumor cells PC-12): 0.0662 µg/mL |
